In patent US4772594A, “Prodrug compounds, process for the preparation thereof and sustained release preparation comprising the same” (Fujisawa Pharmaceutical Co., Ltd., priority 1986, dated 1988):
Read-outs that look alike come from different tables or passages of the source.

Columns and labels:
[1] = system: Mouse leukemia cell L 1210; test: Anti tumor test 1: survival of mice implanted with L 1210 leukemia; assay type: in vivo; conditions: for T/C: mean survival time vs control
Excerpt: The mixture of chloroform and methanol (8:2 V/V) containing egg yolk lecithin (245 μmole), egg yolk sphingomyelin (105 μmole) and Cytarabine prodrug (Example 8) (87.5 and 262.5 μmole respectively) was taken in a roundbottom flask. Liposome suspensions containing Cytarabine prodrug (Concentration: 10 and 20 μmole/ml respectively) were obtained in a similar manner to that of the above-mentioned method. Mouse leukemia cell L 1210 (10^5 cells) were implanted intraperitoneally into BDF female mice (7 weeks).
After 24 hours after inoculation, Cytarabine aqueous solution (dose: 1000 and 3000 μmole/kg respectively), above-mentioned liposome suspension containing Cytarabine prodrug (dose: 100 and 300 μmole/kg respectively)and aqueous solution of N^4 -behenoyl-1-β-arabinofuranosylcytosine (hereinafter referred to as BHAC) which is a known compound as Cytarabine prodrug and is shown by the following structure (dose: 100 and 300 μmole/kg respectively) were administered intravenously to the mouse at a volume of 0.2 ml or 0.3 ml (in case the administration at the dose of 300 μmole/kg of Cytarabine prodrug) per 20 g of mouse body weight. After the treatment, survival of the mice was recorded. [drawing 9]

[2] = system: Mouse leukemia cell L 1210; test: as above; assay type: in vivo; conditions: i.v. aqueous solution, 100 μmole/kg
[3] = system: human lung adenocarcinoma A 549; test: Anti tumor test 2: growth inhibition of A 549 under the subrenal capsule of mice; assay type: in vivo; conditions: Day 14, i.v. aqueous solution, 1000 μmole/kg at Day 1, 5, 9
Excerpt: The mixture of chloroform and methanol (3:1 V/V) containing egg yolk lecithin (245 μmole), egg yolk sphingomyelin (105 μmole) and Cyarabine prodrug (Example 8) (87.5 and 157.5 μmole respectively) was taken in a round-bottom flask. Liposome suspensions containing Cytarabine prodrug (Concentration: 10 and 18 μmole/ml respectively) were obtained in a similar manner to that of the above-mentioned method.
A fragment of human lung adenocarcinoma A 549 was implanted under the subrenal capsule of BDF female mouse (8 weeks). Cytarabine aqueous solution (dose: 1000 μmole/kg) and above-mentioned liposome suspension containing Cytarabine prodrug (dose: 100 and 180 μmole/kg respectively)were administered intravenously to the mice at a volume of 0.2 ml per mouse body weight 20 g at Day 1, 5 and 9 after implantation. The tumor volume at Day 14 after implantation was measured and the growth inhibition percent was calculated. (In this test, to clarify the anti tumor effect of each preparation, 17-allyl-1,14-dihydroxy-12-[2-(4-hydroxy-3- methoxycyclohexyl)-1-methylvinyl]-23,25-dimethoxy-13,19,21,27-tetramethyl- 11,28-dioxa-4-azatricyclo[22.3.1.0^4,9 ]octacos-18-ene-2,3,10,16-tetraone as immunosuppressive substance(dose: 32 mg/kg) was administered subcutaneously at Day 1, 2, 5, 7, 9 and 12 after implanation.)

[4] = Bioavailability Test 3: blood concentration after i.v. emulsion or aqueous solution in mice; assay type: in vivo, ICR female mice; conditions: mouse, iv, 0.8 umol/animal, read-out: Blood concentration of Mitomycin C Prodrug (Example 1)
Experimental: The liposome suspension containing Mitomycin C prodrug (Example 1), which was prepared in the above Bioavailability Test 1, was diluted with PBS at the concentration of Mitomycin C prodrug of 2.5 μmole/ml and was filtered through a polycarbonate membrane (0.1μ). 0.2 ml of PBS solution of Mitomycin C or the liposome suspension containing Mitomycin C prodrug was administered intravenously to ICR female mice (8 weeks, body weight: about 25 g, 3 per one group) respectively, and the blood samples were withdrawn by cardiac puncture under anesthesia. The blood concentrations of Mitomycin C and Mitomycin C prodrug were determined in accordance with the same procedures as described in Bioavailability Test 1.
Each chloroform solution of Mitomycin C prodrug (Example 1) (4 μmole), Panacete 800 (trademark, prepared by Nihon Yushi Co., Ltd.) (40 mg), egg yolk lecithin (14 mg) and HCO-60 (trademark, prepared by Nikko Chemicals Co., Ltd.) (8 mg) was combined in a round-bottom flask and evaporated to dryness. To this was added PBS (1 ml) and emulsified with a sonicator to give an emulsion containing Mitomycin C prodrug. Each chloroform solution of liitomycin C prodrug (Example 1) (4 μmole) and HCO-60 (24 mg) was combined in a roundbottom flask and evaporated to dryness. The residue was dispersed in 1 ml of PBS and agitated vigorously to yield a clear solution. 0.2 ml of each preparations thus obtained which contained the prodrug at 4 μmole/ml, was administered to mice and the blood concentrations of Mitomycin C and Mitomycin C prodrug were determined according to the same procedures as described in Bioavailability Test 2.

[5] = Toxicity test: body weight change after i.v. administration to mice; assay type: in vivo, ICR male mice; conditions: mouse
Experimental: Each chloroform solution of egg yolk lecithin (126 μmole), egg yolk sphingomyelin (54 μmole) and Mitomycin C prodrug (Example 1) (3.75, 24 and 37.5 μmole respectively) was combined in a round-bottom flask and evaporated to dryness. Liposome suspensions containing Mitomycin C prodrug were obtained according to the same procedures as described above. The liposome suspensions were diluted with PBS to obtain the desired drug concentration (0.15, 0.96 and 1.50 mg/ml as Mitomycin C) and were filtered through polycarbonate membranes (0.1 μ). PBS solution of Mitomycin C (dose: 1.0 and 6.4 mg/kg/day respectively) or above-mentioned liposome suspension containing Mitomycin C prodrug (dose: 1.0, 6.4 and 10 mg/kg/day as Mitomycin C) were administered intravenously to ICR male mice (6 week) at Day 1, 3 and 5 and the body weight change was recorded from Day 1 to 15.

[6] = Conversion Test 1: conversion half life of prodrug to parent compound in rat serum; assay type: in vitro ADME; conditions: rat, serum; for half-life: Half life (t 1/2)
Experimental: Chloroform solution containing egg yolk lecithin (84 μmole), egg yolk sphingomyelin (36 μmole) and Mitomycin C prodrug ( 6 μmole) obtained in the below-mentioned Example 1 or 2 was poured into a round-bottom flask and evaporated to dryness.
To this were added sodium cholate (258 mg) and pH 7.4 phosphate buffered saline (hereinafter referred to as PBS) (4.8 ml) and the mixture was agitated to give a clear purple solution.
Sodium cholate was removed from the solution by the Lipoprep dialyzer (detergent removal apparatus prepared by Diachema Co., Ltd.) to give a liposome suspension containing Mitomycin C prodrug.
Chloroform solution containing egg yolk lecithin (70 μmole), egg yolk sphingomyelin (30 μmole) and FR900482 substance prodrug (Example 6)(5 μmole) was poured into a round-bottom flask and a liposome suspension containing FR900482 substance prodrug was obtained in a similar manner to that of above-mentioned method.
Above-mentioned two liposome suspensions containing Mitomycin C prodrug were each diluted with PBS at 2.5 times.
The liposome suspension containing FR900482 substance prodrug was diluted with PBS to obtain the drug concentration of 0.5 μmole/ml and was filtered through millex-GV (trademark: prepared by Millipore Co., Ltd.) filter (0.22μ).
After the liposome suspension and ethanol solution of each prodrug (0.5 ml) were added to mouse, rat or human serum (4.5 ml, 37° C.), samples were taken periodically and the concentration of each prodrug was determined by high-performance liquid chromotography.
Conversion half lives (t 1/2) of each prodrug to each parent compound in various kinds of serum were calculated by the concentration of each prodrug remaining at each time.

[7] = Bioavailability Test 2: blood concentration after i.v. administration to mice; assay type: in vivo, ICR female mice; conditions: iv, mouse, i.v. PBS solution of Mitomycin C
Experimental: The blood concentrations of Mitomycin C and Mitomycin C prodrug were determined in accordance with the same procedures as described in Bioavailability Test 1.

[8] = Bioavailability Test 1: blood concentration after i.v. administration to rats; set-up: species or system SD male rats; conditions: rat, in vivo, iv
Experimental: Chloroform solution (14.3 ml) containing egg yolk lecithin (126 μmole), egg yolk sphingomyelin (54 μmole) and Mitomycin C prodrug (Example 1) (24 μmole) was poured into a round-bottom flask and evaporated at one hour. To this were added sodium cholate (194 mg) and PBS (6 ml) and agitated. A liposome suspension containing Mitomycin C prodrug was obtained according to a similar manner to that of above-mentioned method. The liposome suspension thus prepared was diluted with PBS to obtain the drug concentration of 3.0 μmole/ml and was filtered through a polycarbonate membrane (0.1 μ). 1.0 ml of PBS solution of Mitomycin C or the liposome suspension containing Mitomycin C prodrug prepared by the above-mentioned method was administered intravenously to SD male rats (7 weeks, body weight: about 300 g, 4 per one group) and blood samples were withdrawn at appropriate intervals from subclavian vein. The plasma samples were deproteinzed and the concentration of Mitomycin C was determined by high-performance liquid chromatography.
While Mitomycin C prodrug in the blood was determined by high-performance liquid chromatography after extraction with ethanol from the freeze-dried blood samples.

[9] = i.v. BHAC aqueous solution, 100 μmole/kg
[10] = i.v. BHAC aqueous solution, 300 μmole/kg
[11] = i.v. aqueous solution, 1000 μmole/kg
[12] = i.v. aqueous solution (4 μmole/ml, 0.2 ml)
[13] = i.v. emulsion (4 μmole/ml, 0.2 ml)

Structure (SMILES): CCCCCCCCCCCCCCCCCCCCCC(=O)Nc1ccn([C@@H]2O[C@H](CO)[C@@H](O)[C@@H]2O)c(=O)n1 [BHAC, N^4-behenoyl-1-β-arabinofuranosylcytosine]
- Mean survival time [1, 9]: 11.0 ± 0.3 days
- Mean survival time [1, 10]: 15.3 ± 0.5 days
- T/C [1, 9]: 122%
- T/C [1, 10]: 170%

Structure (SMILES): Nc1ccn([C@@H]2O[C@H](CO)[C@@H](O)[C@@H]2O)c(=O)n1 [Cytarabine, 1-β-D-arabinofuranosylcytosine]
- Mean survival time [2]: 9.5 ± 0.2 days
- T/C ([2]; mean survival time vs control): 106%
- Mean survival time [1, 11]: 10.8 ± 0.3 days
- T/C [1, 11]: 120%
- Tumor volume mean value ± standard error [3]: 17.7 ± 3.2 mm^3
- Inhibition ([3]; tumor growth): 41.7%

Structure (SMILES): CO[C@@]12[C@H](COC(N)=O)C3=C(C(=O)C(C)=C(N)C3=O)N1C[C@H]1[C@@H]2N1C(=O)CNC(=O)O[C@H]1CC[C@@]2(C)C(=CC[C@H]3[C@@H]4CC[C@H]([C@H](C)CCCC(C)C)[C@@]4(C)CC[C@@H]32)C1 [Example 1, [1aS-(1aα, 8β, 8aα, 8bα)]-6-amino-8-carbamoyloxymethyl-N'-[N-(cholest-5-en-3β-oxycarbonyl)glycyl]-1,1a,2,8,8a,8b-hexahydro-8a-methoxy-5-methy-aziridino[2',3':3,4]pyrrolo [1,2-a]indole-4,7-dione]
- concentration at 1 h [4, 12]: 186 µM
- concentration at 4 h [4, 12]: 73.9 µM
- concentration at 7 h [4, 12]: 22.2 µM
- concentration at 1 h [4, 13]: 251 µM
- concentration at 4 h [4, 13]: 81.6 µM
- concentration at 7 h [4, 13]: 39 µM
- Body weight ([5]; i.v. liposome suspension, 1.0 mg/kg/day as Mitomycin C at Day 1, 3, 5, 1 day): 32.78 g
- Body weight ([5]; i.v. liposome suspension, 6.4 mg/kg/day as Mitomycin C at Day 1, 3, 5, 1 day): 33.86 g
- Body weight ([5]; i.v. liposome suspension, 10.0 mg/kg/day as Mitomycin C at Day 1, 3, 5, 1 day): 35.14 g
- Half life (t 1/2) [6]: 10.0 h
- half-life [6]: 342 min

Structure (SMILES): CO[C@@]12[C@H](COC(N)=O)C3=C(C(=O)C(C)=C(N)C3=O)N1C[C@H]1[C@@H]2N1C(=O)CO[C@H]1CC[C@@]2(C)C(=CC[C@H]3[C@@H]4CC[C@H]([C@H](C)CCCC(C)C)[C@@]4(C)CC[C@@H]32)C1 [Example 2, [1aS-(1aα, 8β, 8aα,8bα)]-6-amino-8-carbamoyloxymethyl-N-(cholest-5-en-3β-oxyacetyl) 1,1a,2,8,8 a,8b-hexahydro-8a-methoxy-5-methyl-aziridino [2',3':3,4]pyrrolo[1,2-a]indole-4,7-dione]
- Half life (t 1/2) [6]: 17.3 h
- half-life [6]: 558 min

Structure (SMILES): CO[C@@]12[C@H](COC(N)=O)C3=C(C(=O)C(C)=C(N)C3=O)N1C[C@@H]1N[C@@H]12 [Mitomycin C]
- concentration at 5 min ([7]; 5 min): 9.15 µM
- concentration at 0.25 h ([7]; 15 min): 2760 nM
- concentration at 0.5 h ([7]; 30 min): 1570 nM
- concentration at 1 h ([7]; 1 hr): 110 nM
- Body weight ([5]; i.v. PBS solution, 1.0 mg/kg/day at Day 1, 3, 5, 1 day): 33.78 g
- Body weight ([5]; i.v. PBS solution, 1.0 mg/kg/day at Day 1, 3, 5, 5 days): 33.86 g
- Body weight ([5]; i.v. PBS solution, 1.0 mg/kg/day at Day 1, 3, 5, 15 days): 35.26 g
- Body weight ([5]; i.v. PBS solution, 6.4 mg/kg/day at Day 1, 3, 5, 1 day): 35.54 g
- Body weight ([5]; i.v. PBS solution, 6.4 mg/kg/day at Day 1, 3, 5, 5 days): 29.36 g
- Death (in body weight column, 15 days) ([5]; i.v. PBS solution, 6.4 mg/kg/day at Day 1, 3, 5, at 8 days): All died
- concentration at 5 min [8]: 10.7 µM
- concentration at 0.25 h [8]: 5.54 µM
- concentration at 0.5 h [8]: 3.32 µM
- concentration at 1 h [8]: 1040 nM
- concentration at 2 h [8]: 110 nM
